Test results taken from PubChem BioAssay AID330 (DTP/NCI, 2004).
“And” between values parts separate entries of the source, which are not always exact repeats. Identical values can stand only once. Inconclusive results and toxic doses are left out.

Tested on: P388 leukemia ip, CD2F1 mice, survival T/C
Assay: NCI In Vivo Anticancer Drug Screen. Data for tumor model P388 Leukemia (intraperitoneal) in CD2F1 (CDF1) mice
Settings: endpoint: median survival time, higher = longer survival
In short: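 Mice carrying the transplanted tumor received test compound or vehicle. Survival was recorded in each group, and the value is the treated-group measurement divided by that of the vehicle-treated control group.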

[1] = dose: 100.0 mg/kg/injection, schedule: Q04DX002 (ip), vehicle: saline with Tween-80
[2] = dose: 200.0 mg/kg/injection, schedule: Q04DX002 (ip), vehicle: saline with Tween-80
[3] = dose: 50.0 mg/kg/injection, schedule: Q01DX009 (ip), vehicle: Klucel (hydroxypropylcellulose) (HPC)
[4] = dose: 100.0 mg/kg/injection, schedule: Q01DX009 (ip), vehicle: Klucel (hydroxypropylcellulose) (HPC)
[5] = dose: 200.0 mg/kg/injection, schedule: Q01DX009 (ip), vehicle: Klucel (hydroxypropylcellulose) (HPC)
[6] = dose: 25.0 mg/kg/injection, schedule: Q01DX005 (ip), vehicle: saline
[7] = dose: 50.0 mg/kg/injection, schedule: Q01DX005 (ip), vehicle: saline with Tween-80
[8] = dose: 50.0 mg/kg/injection, schedule: Q01DX005 (ip), vehicle: saline
[9] = dose: 100.0 mg/kg/injection, schedule: Q01DX005 (ip), vehicle: saline
[10] = dose: 200.0 mg/kg/injection, schedule: Q01DX005 (ip), vehicle: saline
[11] = dose: 100.0 mg/kg/injection, schedule: Q04DX003 (ip), vehicle: saline with Tween-80
[12] = dose: 200.0 mg/kg/injection, schedule: Q04DX003 (ip), vehicle: saline with Tween-80
[13] = dose: 400.0 mg/kg/injection, schedule: Q04DX003 (ip), vehicle: saline with Tween-80
[14] = dose: 100.0 mg/kg/injection, schedule: Q01DX005 (ip), vehicle: saline with Tween-80
[15] = dose: 200.0 mg/kg/injection, schedule: Q01DX005 (ip), vehicle: saline with Tween-80
[16] = dose: 60.0 mg/kg/injection, schedule: Q01DX005 (ip), vehicle: Klucel (hydroxypropylcellulose) (HPC)
[17] = dose: 120.0 mg/kg/injection, schedule: Q01DX005 (ip), vehicle: Klucel (hydroxypropylcellulose) (HPC)
[18] = dose: 240.0 mg/kg/injection, schedule: Q01DX005 (ip), vehicle: Klucel (hydroxypropylcellulose) (HPC)
[19] = dose: 50.0 mg/kg/injection, schedule: Q01DX005 (ip), vehicle: Klucel (hydroxypropylcellulose) (HPC)
[20] = dose: 100.0 mg/kg/injection, schedule: Q01DX005 (ip), vehicle: Klucel (hydroxypropylcellulose) (HPC)
[21] = dose: 200.0 mg/kg/injection, schedule: Q01DX005 (ip), vehicle: Klucel (hydroxypropylcellulose) (HPC)
[22] = dose: 50.0 mg/kg/injection, schedule: Q01DX009 (ip), vehicle: saline with Tween-80
[23] = dose: 100.0 mg/kg/injection, schedule: Q01DX009 (ip), vehicle: saline with Tween-80
[24] = dose: 200.0 mg/kg/injection, schedule: Q01DX009 (ip), vehicle: saline with Tween-80

`C/C(=N\N=C(N)N)c1ccc2c(c1)Cc1cc(/C(C)=N/N=C(N)N)ccc1-2` was tested, and the T/C (dose: 3.12 mg/kg/injection, schedule: Q04DX002 (ip), vehicle: saline with Tween-80) was 100 % of control and 107 % of control, the T/C (dose: 6.25 mg/kg/injection, schedule: Q04DX002 (ip), vehicle: saline with Tween-80) was 107 % of control and 108 % of control and the T/C (dose: 12.5 mg/kg/injection, schedule: Q04DX002 (ip), vehicle: saline with Tween-80) was 115 % of control (2×) and 122 % of control. The T/C (dose: 25.0 mg/kg/injection, schedule: Q04DX002 (ip), vehicle: saline with Tween-80) was 120 % of control and 121 % of control and 123 % of control, the T/C (dose: 50.0 mg/kg/injection, schedule: Q04DX002 (ip), vehicle: saline with Tween-80) was 115 % of control and 121 % of control and 124 % of control and the T/C [1] was 112 % of control and 122 % of control. For the same compound, the T/C [2] was 122 % of control.

With `O=C(CS(=O)(=O)c1ccccc1)CS(=O)(=O)c1ccccc1` the T/C [3] was 96 % of control, the T/C [4] was 98 % of control and the T/C [5] was 99 % of control.

With `Cc1ccc(S(=O)(=O)CC2CCc3ccccc3C2=O)cc1` (configuration not stated) the T/C (dose: 100.0 mg/kg/injection, schedule: Q04DX002 (ip), vehicle: saline) was 107 % of control, the T/C (dose: 200.0 mg/kg/injection, schedule: Q04DX002 (ip), vehicle: saline) was 101 % of control and the T/C (dose: 400.0 mg/kg/injection, schedule: Q04DX002 (ip), vehicle: saline) was 104 % of control.

For `COc1cc(C2c3cc4c(cc3OC(C)(O)C2C)OCO4)cc(OC)c1OC` (configuration not stated), the T/C (dose: 12.5 mg/kg/injection, schedule: Q01DX005 (ip), vehicle: saline) was 104 % of control and 105 % of control, the T/C (dose: 25.0 mg/kg/injection, schedule: Q01DX005 (ip), vehicle: saline with Tween-80) was 107 % of control and the T/C [6] was 105 % of control. The T/C [7] was 103 % of control, the T/C [8] was 102 % of control and 105 % of control and the T/C [9] was 107 % of control and 113 % of control. For the same compound, the T/C [10] was 111 % of control.

For `CCCCOC(=O)C(CC)c1ccccc1` (configuration not stated), the T/C [11] was 114 % of control, the T/C [12] was 114 % of control and the T/C [13] was 112 % of control.

In the case of `CC1=CC2(C)C=C(C)C3(OC(c4ccccc4)=C(C#N)C3=N2)C1=O` (configuration not stated), the T/C [7] is reported as 103 % of control, the T/C [14] is reported as 105 % of control and the T/C [15] is reported as 111 % of control.

In the case of `CNc1c([N+](=O)[O-])cc2[nH]c(C)nc2c1[N+](=O)[O-]`, the T/C (dose: 6.25 mg/kg/injection, schedule: Q04DX003 (ip), vehicle: saline with Tween-80) is reported as 103 % of control, the T/C (dose: 12.5 mg/kg/injection, schedule: Q04DX003 (ip), vehicle: saline with Tween-80) is reported as 113 % of control and the T/C (dose: 25.0 mg/kg/injection, schedule: Q04DX003 (ip), vehicle: saline with Tween-80) is reported as 99 % of control and 92 % of control.

For `C=C1C(=O)OC2C(OC(=O)CC)CCCC12` (configuration not stated), the T/C [16] was 95 % of control, the T/C [17] was 98 % of control and the T/C [18] was 110 % of control.

In the case of `O=C1CSC(c2cccs2)N1CCN1C(=O)CSC1c1cccs1` (configuration not stated), the T/C [1] is reported as 100 % of control and the T/C [2] is reported as 96 % of control.

`Cn1cnc([N+](=O)[O-])c1Sc1nnc(-c2ccccc2)c(-c2ccccc2)n1` was tested, and the T/C [19] was 88 % of control, the T/C [20] was 86 % of control and the T/C [21] was 92 % of control.

With `COc1nc2c(ccn2C2OCC(OC(C)=O)C(OC(C)=O)C2OC(C)=O)c(=O)n1C` (configuration not stated) the T/C (dose: 60.0 mg/kg/injection, schedule: Q01DX005 (ip), vehicle: saline with Tween-80) was 100 % of control, the T/C (dose: 120.0 mg/kg/injection, schedule: Q01DX005 (ip), vehicle: saline with Tween-80) was 97 % of control and the T/C (dose: 240.0 mg/kg/injection, schedule: Q01DX005 (ip), vehicle: saline with Tween-80) was 100 % of control.

With `CC(=O)OC1CCCCC1C` (configuration not stated) the T/C [22] was 113 % of control, the T/C (dose: 50.0 mg/kg/injection, schedule: Q04DX003 (ip), vehicle: saline with Tween-80) was 105 % of control and the T/C [23] was 118 % of control. For the same compound, the T/C [11] was 110 % of control, the T/C [24] was 109 % of control and the T/C [12] was 110 % of control.

For `Cc1ccc(S(=O)(=O)Nc2cccc3c(NS(=O)(=O)c4ccc(C)cc4)cccc23)cc1`, the T/C [23] was 100 % of control, the T/C [11] was 100 % of control and the T/C [24] was 95 % of control. For the same compound, the T/C [12] was 90 % of control and the T/C [13] was 100 % of control.

`Cc1ncc([N+](=O)[O-])n1CCOC(N)=O` was tested, and the T/C [3] was 100 % of control, the T/C [4] was 99 % of control and the T/C [5] was 99 % of control.

In the case of `C=CCOc1cc2c(cc1C/C=C/c1ccccc1)OCO2`, the T/C [7] is reported as 102 % of control, the T/C [14] is reported as 103 % of control and the T/C [15] is reported as 109 % of control.

With `O=C(COc1ccc2c(=O)c3ccccc3oc2c1)N/N=C/c1ccc(N(CCCl)CCCl)cc1` the T/C [16] was 97 % of control, the T/C [17] was 95 % of control and the T/C [18] was 94 % of control.

In the case of `O=CC=O`, the T/C (dose: 25.0 mg/kg/injection, schedule: Q01DX009 (ip), vehicle: saline) is reported as 98 % of control, the T/C [22] is reported as 116 % of control and the T/C (dose: 50.0 mg/kg/injection, schedule: Q01DX009 (ip), vehicle: saline) is reported as 120 % of control. The T/C [24] was 152 % of control and the T/C (dose: 200.0 mg/kg/injection, schedule: Q01DX009 (ip), vehicle: saline) was 88 % of control.

In the case of `CC(C)(C)c1cc(OCC2CO2)c(C(C)(C)C)cc1OCC1CO1` (configuration not stated), the T/C [3] is reported as 107 % of control, the T/C [4] is reported as 105 % of control and the T/C [5] is reported as 106 % of control. The T/C (dose: 400.0 mg/kg/injection, schedule: Q01DX009 (ip), vehicle: Klucel (hydroxypropylcellulose) (HPC)) was 116 % of control.

In the case of `COc1ccc(N2C(=O)C3C4C=CC(C3C2=O)N(C)C4=O)cc1` (configuration not stated), the T/C [1] is reported as 101 % of control, the T/C [2] is reported as 98 % of control and the T/C (dose: 400.0 mg/kg/injection, schedule: Q04DX002 (ip), vehicle: saline with Tween-80) is reported as 87 % of control.

In the case of `CCN(CC)CCNc1ccc(COC(C)=O)c2oc3ccccc3c(=O)c12`, the T/C (dose: 6.25 mg/kg/injection, schedule: Q01DX005 (ip), vehicle: saline with Tween-80) is reported as 111 % of control and the T/C (dose: 12.5 mg/kg/injection, schedule: Q01DX005 (ip), vehicle: saline with Tween-80) is reported as 118 % of control.

`[O-]c1cc2c3c(c1)c1cc4c(cc1c[n+]3C=C2)OCO4` was tested, and the T/C (dose: 25.0 mg/kg/injection, schedule: Q01DX009 (ip), vehicle: other) was 123 % of control.

`CC(C)(C)NC(=O)N1C2C3CCC(C)(OC3(C)C)C21` (configuration not stated) was tested, and the T/C [7] was 98 % of control and the T/C [14] was 99 % of control.

With `CC(C(=O)N1CCCC1)C(O)c1ccccc1` (configuration not stated) the T/C [8] was 105 % of control, the T/C [9] was 107 % of control and the T/C [10] was 98 % of control.

In the case of `COc1cc(OC)c(OC)cc1/C=C\c1nccc2ccccc12`, the T/C [22] is reported as 99 % of control, the T/C [23] is reported as 96 % of control and the T/C [24] is reported as 96 % of control.

In the case of `CN(C)c1cnc(N)nc1N`, the T/C [6] is reported as 95 % of control and 97 % of control, the T/C [8] is reported as 97 % of control and the T/C [9] is reported as 95 % of control.

For `COc1ccc(Oc2nc(=O)n3ccsc3n2)cc1`, the T/C [11] was 108 % of control, the T/C [12] was 86 % of control and the T/C [13] was 94 % of control.

In the case of `O=C(O)c1cc[c]([Hg][S]c2ncnc3nc[nH]c23)cc1`, the T/C (dose: 1.56 mg/kg/injection, schedule: Q01DX009 (ip), vehicle: saline with Tween-80) is reported as 106 % of control, the T/C (dose: 3.13 mg/kg/injection, schedule: Q01DX009 (ip), vehicle: saline with Tween-80) is reported as 110 % of control and 123 % of control and the T/C (dose: 6.25 mg/kg/injection, schedule: Q01DX009 (ip), vehicle: saline with Tween-80) is reported as 100 % of control. For the same compound, the T/C (dose: 12.5 mg/kg/injection, schedule: Q01DX009 (ip), vehicle: saline with Tween-80) was 100 % of control and the T/C (dose: 25.0 mg/kg/injection, schedule: Q01DX009 (ip), vehicle: Klucel (hydroxypropylcellulose) (HPC)) was 121 % of control.

With `CCOC(=O)C1=C(c2ccco2)NN=C(c2ccccc2)C1` the T/C [7] was 101 % of control, the T/C [14] was 103 % of control and the T/C [15] was 94 % of control.

With `CC1=NN(C(=O)c2ccccc2)C(C)(C)C1` the T/C [19] was 113 % of control, the T/C [20] was 111 % of control and the T/C [21] was 97 % of control.

`CCOc1c(N=Nc2cccc([N+](=O)[O-])c2)c(C)nn1C(=S)SC` was tested, and the T/C [16] was 93 % of control and the T/C [17] was 90 % of control.
